According to article PMC7115756 (Journal of Medicinal Chemistry, 2020):
“Also recorded” adds a separate entry of the source.

Legend:
TTR/Aβ(1–42) complex = TTR/Aβ(1–42) complex (Homo sapiens, UniProt P02766); assay: ITC, ternary complex: [TTR + stabilizer] titrated with Aβ; format: binding; settings: compared with TTR/Aβ(1–42) without stabilizer
TTR/Aβ(12–28) complex = TTR/Aβ(12–28) complex (Homo sapiens, UniProt P02766); assay: as above; format: binding; settings: compared with TTR + Aβ(12–28) without stabilizer
mice model of AD = settings: in vivo administration; cited from earlier work
TTR = TTR (Homo sapiens, UniProt P02766); assay: ITC, binary complex TTR + Aβ peptide; format: binding; settings: thermograms of binary complexes; HEPES/glycine pH 7.4, 5% DMSO, 25 °C

Row | Compound | chaperoning effect on the TTR/Aβ(1–42) interaction (in words) (TTR/Aβ(1–42) complex) | interaction with TTR by ITC (in words) (TTR) | other results
1 | O=C(O)c1cc(-c2ccc(F)cc2F)ccc1O [Diflunisal, 5-(2,4-difluorophenyl)-2-hydroxy-benzoic acid] | chaperoning effect could not be observed | – | effect of the stabilizer on the TTR/Aβ(12–28) complex (in words) (TTR/Aβ(12–28) complex; listed as diflunisal (1)): do not enhance the TTR/Aβ interaction; also recorded: negligible
2 | O=C(O)c1cc(-c2ccc(F)cc2F)cc(I)c1O [IDIF, 2',4'-difluoro-4-hydroxy-5-iodo-1,1'-biphenyl-3-carboxylic acid] | cooperative effect | – | effect in AD mice (brain Aβ, cognition) (mice model of AD): decrease in brain Aβ levels and deposition; effect of the stabilizer on the TTR/Aβ(12–28) complex (in words) (TTR/Aβ(12–28) complex): stabilizing
3 | O=C(O)c1ccc2nc(-c3cc(Cl)cc(Cl)c3)oc2c1 [Tafamidis, 2-(3,5-dichlorophenyl)-1,3-benzoxazole-6-carboxylic acid] | – | – | chaperoning effect on the TTR/Aβ(1–42) interaction (in words) (TTR/Aβ(1–42) complex; listed as Tafamidis (2)): negligible effect; also recorded: chaperoning effect could not be observed; also recorded: not detected; effect of the stabilizer on the TTR/Aβ(12–28) complex (in words) (TTR/Aβ(12–28) complex; listed as Tafamidis (2)): do not enhance the TTR/Aβ interaction; also recorded: negligible
4 | DAEFR HDSGY E [Aβ(1–11) (5)] | – | no significant interaction | –
5 | EDVG SNKGA IIGLM [Aβ(25–35) (8)] | – | no significant interaction | –
6 | Y EVHHQ KLVFF [Aβ(10–20) (6)] | – | very low enthalpy change | –
